Assay results as given in patent US20090136968A1, “Novel in vitro methods for studying receptors recognizing volatile compounds” (Chemcom S. A., priority 2005, published 2009).

Assays:
mOR-I7 [1] = molecular target: T1, mOR-I7 (Mus musculus, UniProt Q9QWU6); assay: cAMP level immunoassay (TROPIX) in the novel assay on HEK 293T overexpressing mOR-I7; assay type: cell-based; settings: BSA solution incubated with 16 μl of 1 M odorant; 20 minutes incubation
T1 construct: expressed in transfected cells; host or cells: HEK 293T
T1 sequence (Q9QWU6 1-327): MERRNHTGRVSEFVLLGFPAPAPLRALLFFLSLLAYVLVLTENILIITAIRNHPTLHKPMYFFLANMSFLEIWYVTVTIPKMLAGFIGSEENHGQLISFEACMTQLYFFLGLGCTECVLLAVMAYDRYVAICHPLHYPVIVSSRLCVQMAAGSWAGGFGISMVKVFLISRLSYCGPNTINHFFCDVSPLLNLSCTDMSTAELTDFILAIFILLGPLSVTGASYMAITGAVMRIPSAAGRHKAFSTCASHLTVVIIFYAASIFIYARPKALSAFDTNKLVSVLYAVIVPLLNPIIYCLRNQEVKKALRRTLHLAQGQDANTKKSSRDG
Experimental: Similarly to the first step of the fluorescence-based functional assay described above, BP solutions including SA, OBP and/or olfactory mucus (see concentration in the text) were incubated in the presence of odorant in a sealed flask for 16 hours at 4° C. (FIG. 3A). Such odorant-BP complexes were then applied to cultured-cell for 20 minutes at 37° C. cAMP level was then measured using the Tropix kit according to the manufacturer procedures (Applied Biosystem).
As depicted in FIG. 1, binding of odorant molecule to olfactory receptor triggers a cascade of molecular events. In the most commonly accepted pathway, the first second messenger is cAMP synthesized by adenylate cyclase type III. Therefore, a mean to test olfactory receptor activation is to assess variation of cellular cAMP pool after olfactory receptor activation. It is noteworthy that such assay could be performed in parallel to calcium flux assay described above to validate hits obtained during a screening.
Specificity of the novel cell based olfactory functional assay according to the present invention was tested following mOR-I7 activation after injection of these three odorants and two non related odorant, vanilline and piperonyl isobutyrate. Olfactory receptor activation was detected by cellular cAMP pool immunoassay. A solution of BSA was incubated overnight at 4° C.
As discussed above (FIG. 1), activation of olfactory receptor can also be followed through cAMP synthesis. […] Results are expressed as percent of response observed after incubation with 100 μM forskolin, an activator of adenylate cyclases. […] Scheme of the odorant molecules are depicted in FIG. 7E.

mOR-I7 [2] = molecular target: T1, mOR-I7; settings: literature (references); cited from earlier work
mOR-I7 [3] = molecular target: T1, mOR-I7; assay: Single cell calcium imaging (Fura2) on HEK 293T overexpressing mOR-I7, with or without mucus in buffer; assay type: cell-based; settings: 500 μM octanal
Experimental: FIG. 2: Bovine olfactory mucus enhances hORL-424 activation by citronellal. (A and B) Calcium measurement was performed after activation of hORL-424 with citronellal in the presence of different amount of bovine olfactory mucus. 0 to 10 μl of mucus (0 to 10 μg of total protein) have been added to assay buffer. Calcium flux has been followed on FDSS (Hamamatsu Photonics K.K. plate reader, Japan) using Fluo4 as fluorescent dye. Histograms represent fluorescent signal observed in the presence or in the absence of 10 μl of bovine olfactory mucus. (C) Concentration response curve of HEK 293T overexpressing hORL-424 treated with citronellal. Gray boxes represent values obtained in the presence of bovine olfactory mucus. Calcium flux measurements have been performed on FDSS (Hamamatsu Photonics K.K. plate reader, Japan). (D and E) Traces obtained during single cell calcium imaging after addition of 500 μM octanal on HEK 293T overexpressing mOR-I7 in the absence (D) or in the presence of 10 μl of bovine olfactory mucus (E). Fura2 was used as fluorescent dye. Results are expressed as F340/F380 ratiometric measurement.
This bovine olfactory mucus property was also observed on a different OR in other assay format. FIGS. 2 D and E show traces obtained from single cell calcium imaging performed on HEK 293T overexpressing mOR-I7 and activated by octanal. In this assay, Fura2 was used as calcium tracer.

SMILES: CCCCCCCC=O [octanal]
- mOR-I7 activation by cellular cAMP pool (mOR-I7 [1]): mOR-I7 ligands
- known activation of mOR-I7 (mOR-I7 [2]): activated specifically
- mOR-I7 activation (calcium flux) (mOR-I7 [3]; absence of mucus): faint activation
- mOR-I7 activation (calcium flux) (mOR-I7 [3]; presence of 10 μl bovine olfactory mucus, ATP positive control): calcium flux similar to the one observed after addition of ATP
